# Legend:
# Test in all cases: biochemical
# Set-up in all cases: KINOMEscan scanMAX active site-directed competition binding assay, percent of control, 468 kinases
# Conditions in all cases: competition binding, percent of control
# [1] = target: T1, ABL1(F317I)-nonphosphorylated (Homo sapiens, UniProt P00519, F317I)
# T1 construct: nonphosphorylated
# Outline: (§1)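 Single-concentration screen (100 μM S-carvone) in a competition binding panel of 468 human kinases (KINOMEscan scanMAX); results given as percent of control, hit cutoff 35%.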
# [2] = target: T2, ABL1(F317L)-nonphosphorylated (Homo sapiens, UniProt P00519, F317L)
# T2 construct: nonphosphorylated
# T2 sequence (P00519 whole entry F317L): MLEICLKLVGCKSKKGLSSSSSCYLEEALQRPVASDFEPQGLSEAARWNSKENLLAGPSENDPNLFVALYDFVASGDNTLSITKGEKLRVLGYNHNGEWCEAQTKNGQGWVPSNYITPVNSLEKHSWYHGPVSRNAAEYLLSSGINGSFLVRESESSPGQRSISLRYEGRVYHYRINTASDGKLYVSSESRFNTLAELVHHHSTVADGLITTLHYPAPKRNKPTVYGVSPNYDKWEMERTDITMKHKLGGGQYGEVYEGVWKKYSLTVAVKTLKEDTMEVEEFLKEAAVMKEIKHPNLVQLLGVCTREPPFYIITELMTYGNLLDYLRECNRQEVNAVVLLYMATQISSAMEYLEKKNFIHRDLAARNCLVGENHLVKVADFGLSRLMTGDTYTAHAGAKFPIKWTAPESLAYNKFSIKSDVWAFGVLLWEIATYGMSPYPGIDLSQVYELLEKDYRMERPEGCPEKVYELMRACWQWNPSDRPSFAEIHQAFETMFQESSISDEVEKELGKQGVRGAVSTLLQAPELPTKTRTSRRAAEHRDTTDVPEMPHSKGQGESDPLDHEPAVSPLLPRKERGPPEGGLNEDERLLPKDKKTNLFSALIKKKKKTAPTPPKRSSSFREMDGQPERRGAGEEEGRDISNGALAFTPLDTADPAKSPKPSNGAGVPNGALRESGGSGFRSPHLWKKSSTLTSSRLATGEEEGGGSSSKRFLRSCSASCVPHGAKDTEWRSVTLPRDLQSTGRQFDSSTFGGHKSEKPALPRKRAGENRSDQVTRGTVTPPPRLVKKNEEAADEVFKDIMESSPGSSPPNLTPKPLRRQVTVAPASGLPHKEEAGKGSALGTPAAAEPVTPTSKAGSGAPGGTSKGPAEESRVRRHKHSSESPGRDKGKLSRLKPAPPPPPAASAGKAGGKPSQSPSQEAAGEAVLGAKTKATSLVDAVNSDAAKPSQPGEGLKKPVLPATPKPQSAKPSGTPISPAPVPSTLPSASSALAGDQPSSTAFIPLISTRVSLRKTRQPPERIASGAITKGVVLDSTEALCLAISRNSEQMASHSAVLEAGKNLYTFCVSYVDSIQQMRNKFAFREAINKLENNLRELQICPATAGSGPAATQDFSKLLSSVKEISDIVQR
# Outline: as §1
# [3] = target: T3, ASK1 (Homo sapiens, UniProt Q99683)
# T3 construct: gene MAP3K5
# Outline: as §1
# [4] = target: CAMK1 (Homo sapiens, UniProt Q14012)
# Outline: as §1
# [5] = target: T4, CDC2L5 (Homo sapiens, UniProt Q14004)
# T4 construct: gene CDK13
# T4 sequence (Q14004 whole entry): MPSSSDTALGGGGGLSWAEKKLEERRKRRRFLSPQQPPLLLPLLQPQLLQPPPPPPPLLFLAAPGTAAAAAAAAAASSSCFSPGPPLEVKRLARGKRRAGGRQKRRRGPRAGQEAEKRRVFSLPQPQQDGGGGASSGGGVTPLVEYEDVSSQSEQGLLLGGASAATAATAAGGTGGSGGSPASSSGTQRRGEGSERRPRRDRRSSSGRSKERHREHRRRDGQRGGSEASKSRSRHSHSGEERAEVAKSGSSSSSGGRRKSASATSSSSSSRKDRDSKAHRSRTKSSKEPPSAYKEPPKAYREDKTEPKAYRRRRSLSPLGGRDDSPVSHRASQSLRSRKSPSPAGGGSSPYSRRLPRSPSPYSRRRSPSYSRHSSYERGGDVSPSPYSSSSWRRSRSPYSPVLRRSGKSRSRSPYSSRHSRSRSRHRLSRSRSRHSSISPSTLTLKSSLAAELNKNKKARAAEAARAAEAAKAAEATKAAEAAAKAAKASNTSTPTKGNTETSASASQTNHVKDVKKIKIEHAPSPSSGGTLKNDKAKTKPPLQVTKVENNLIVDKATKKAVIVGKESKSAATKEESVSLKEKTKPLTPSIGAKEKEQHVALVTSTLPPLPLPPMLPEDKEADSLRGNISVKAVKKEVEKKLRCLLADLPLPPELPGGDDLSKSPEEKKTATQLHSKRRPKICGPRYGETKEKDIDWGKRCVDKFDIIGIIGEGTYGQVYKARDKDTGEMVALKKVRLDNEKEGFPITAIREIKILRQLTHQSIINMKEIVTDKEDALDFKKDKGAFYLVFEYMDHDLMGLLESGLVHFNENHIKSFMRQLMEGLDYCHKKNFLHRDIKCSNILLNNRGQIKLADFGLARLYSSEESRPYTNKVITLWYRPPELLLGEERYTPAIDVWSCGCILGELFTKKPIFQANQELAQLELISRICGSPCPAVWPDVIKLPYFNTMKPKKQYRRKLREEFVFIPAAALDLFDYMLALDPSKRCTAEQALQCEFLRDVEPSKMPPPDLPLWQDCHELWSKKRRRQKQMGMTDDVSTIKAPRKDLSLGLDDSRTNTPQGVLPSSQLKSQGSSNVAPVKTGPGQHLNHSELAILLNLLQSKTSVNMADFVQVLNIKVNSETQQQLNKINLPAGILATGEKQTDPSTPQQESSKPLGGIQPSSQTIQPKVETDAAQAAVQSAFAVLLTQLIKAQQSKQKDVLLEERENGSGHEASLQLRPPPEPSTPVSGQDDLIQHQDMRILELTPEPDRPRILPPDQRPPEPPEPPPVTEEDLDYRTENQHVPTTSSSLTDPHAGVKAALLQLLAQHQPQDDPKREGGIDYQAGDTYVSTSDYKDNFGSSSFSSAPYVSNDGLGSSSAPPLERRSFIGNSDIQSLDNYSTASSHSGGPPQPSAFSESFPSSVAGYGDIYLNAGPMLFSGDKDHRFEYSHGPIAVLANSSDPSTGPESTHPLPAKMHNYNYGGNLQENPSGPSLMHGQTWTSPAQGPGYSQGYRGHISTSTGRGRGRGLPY
# Outline: as §1
# [6] = target: CHEK1 (Homo sapiens, UniProt O14757)
# Outline: as §1
# [7] = target: DAPK3 (Homo sapiens, UniProt O43293)
# Sequence of DAPK3 (O43293 whole entry): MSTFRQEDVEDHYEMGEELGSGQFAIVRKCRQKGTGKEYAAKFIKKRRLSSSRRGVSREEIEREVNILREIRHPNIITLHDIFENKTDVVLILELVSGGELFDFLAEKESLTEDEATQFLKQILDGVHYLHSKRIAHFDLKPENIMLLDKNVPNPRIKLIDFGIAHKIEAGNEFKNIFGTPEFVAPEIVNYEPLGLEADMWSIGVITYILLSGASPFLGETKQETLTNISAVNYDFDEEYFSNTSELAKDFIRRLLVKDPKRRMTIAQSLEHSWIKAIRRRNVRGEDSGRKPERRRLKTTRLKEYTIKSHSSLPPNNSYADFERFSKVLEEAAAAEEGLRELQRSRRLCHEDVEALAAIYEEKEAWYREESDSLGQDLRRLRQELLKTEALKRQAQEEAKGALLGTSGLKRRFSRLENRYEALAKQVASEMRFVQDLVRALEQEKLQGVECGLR
# Outline: as §1
# [8] = target: EGFR(G719C) (Homo sapiens, UniProt P00533, G719C)
# Outline: as §1
# [9] = target: EIF2AK1 (Homo sapiens, UniProt Q9BQI3)
# Sequence of EIF2AK1 (Q9BQI3 whole entry): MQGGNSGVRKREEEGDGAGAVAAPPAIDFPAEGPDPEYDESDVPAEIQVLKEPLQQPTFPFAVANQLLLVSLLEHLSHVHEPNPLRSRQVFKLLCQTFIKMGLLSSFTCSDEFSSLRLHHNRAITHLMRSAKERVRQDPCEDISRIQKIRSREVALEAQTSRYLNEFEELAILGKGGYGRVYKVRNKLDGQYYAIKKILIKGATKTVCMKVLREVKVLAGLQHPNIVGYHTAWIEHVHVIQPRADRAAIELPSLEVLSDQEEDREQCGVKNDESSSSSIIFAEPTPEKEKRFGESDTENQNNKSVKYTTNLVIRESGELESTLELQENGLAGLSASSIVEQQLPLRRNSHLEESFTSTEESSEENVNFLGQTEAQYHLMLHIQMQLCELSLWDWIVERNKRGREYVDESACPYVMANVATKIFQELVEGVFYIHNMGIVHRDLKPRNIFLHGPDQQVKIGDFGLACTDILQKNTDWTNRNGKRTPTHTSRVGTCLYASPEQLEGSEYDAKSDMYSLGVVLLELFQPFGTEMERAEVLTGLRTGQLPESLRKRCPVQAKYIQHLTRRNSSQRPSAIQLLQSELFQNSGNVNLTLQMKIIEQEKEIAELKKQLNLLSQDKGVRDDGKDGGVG
# Outline: as §1
# [10] = target: ERBB3 (Homo sapiens, UniProt P21860)
# Sequence of ERBB3 (P21860 whole entry): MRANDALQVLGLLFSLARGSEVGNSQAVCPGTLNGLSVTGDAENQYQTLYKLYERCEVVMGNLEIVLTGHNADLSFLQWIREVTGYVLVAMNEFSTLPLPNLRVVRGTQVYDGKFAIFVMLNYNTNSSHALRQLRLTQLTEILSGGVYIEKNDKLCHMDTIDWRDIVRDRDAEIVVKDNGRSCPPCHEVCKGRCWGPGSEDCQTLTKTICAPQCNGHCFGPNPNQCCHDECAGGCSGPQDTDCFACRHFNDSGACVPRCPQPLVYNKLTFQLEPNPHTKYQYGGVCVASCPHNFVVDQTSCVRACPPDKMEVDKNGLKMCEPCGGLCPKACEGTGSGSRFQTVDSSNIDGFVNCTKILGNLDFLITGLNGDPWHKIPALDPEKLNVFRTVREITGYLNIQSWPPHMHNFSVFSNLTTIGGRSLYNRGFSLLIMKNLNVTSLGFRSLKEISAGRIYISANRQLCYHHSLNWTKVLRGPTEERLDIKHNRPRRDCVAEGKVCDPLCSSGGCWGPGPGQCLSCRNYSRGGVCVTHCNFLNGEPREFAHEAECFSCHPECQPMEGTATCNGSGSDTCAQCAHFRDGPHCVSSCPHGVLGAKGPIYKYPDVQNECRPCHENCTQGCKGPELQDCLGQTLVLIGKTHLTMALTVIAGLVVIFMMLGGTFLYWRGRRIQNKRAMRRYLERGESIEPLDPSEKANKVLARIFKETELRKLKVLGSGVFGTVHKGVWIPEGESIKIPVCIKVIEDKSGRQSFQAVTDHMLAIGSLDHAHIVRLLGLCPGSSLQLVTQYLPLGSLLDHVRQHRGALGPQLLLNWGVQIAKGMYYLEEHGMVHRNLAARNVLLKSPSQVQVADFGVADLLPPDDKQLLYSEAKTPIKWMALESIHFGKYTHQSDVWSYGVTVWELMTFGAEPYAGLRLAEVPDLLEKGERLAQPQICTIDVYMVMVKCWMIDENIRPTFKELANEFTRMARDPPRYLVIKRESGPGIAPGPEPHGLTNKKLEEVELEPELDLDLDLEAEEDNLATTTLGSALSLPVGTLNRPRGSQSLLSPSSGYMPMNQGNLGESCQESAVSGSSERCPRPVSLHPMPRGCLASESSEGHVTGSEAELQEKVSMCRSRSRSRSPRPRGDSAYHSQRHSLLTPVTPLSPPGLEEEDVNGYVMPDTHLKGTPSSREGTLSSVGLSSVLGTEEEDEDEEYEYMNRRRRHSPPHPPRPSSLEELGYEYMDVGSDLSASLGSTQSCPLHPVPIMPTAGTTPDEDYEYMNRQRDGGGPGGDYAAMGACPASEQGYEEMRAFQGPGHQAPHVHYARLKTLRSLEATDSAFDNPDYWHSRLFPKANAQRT
# Outline: as §1
# [11] = target: FGFR3(G697C) (Homo sapiens, UniProt P22607, G697C)
# Outline: as §1
# [12] = target: FRK (Homo sapiens, UniProt P42685)
# Outline: as §1
# [13] = target: FYN (Homo sapiens, UniProt P06241)
# Outline: as §1
# [14] = target: INSRR (Homo sapiens, UniProt P14616)
# Outline: as §1
# [15] = target: MYO3A (Homo sapiens, UniProt Q8NEV4)
# Outline: as §1
# [16] = target: NEK3 (Homo sapiens, UniProt P51956)
# Outline: as §1
# [17] = target: PRKCH (Homo sapiens, UniProt P24723)
# Outline: as §1
# [18] = target: PRKD1 (Homo sapiens, UniProt Q15139)
# Outline: as §1
# [19] = target: T5, SGK (Homo sapiens, UniProt O00141)
# T5 construct: gene SGK1
# Outline: as §1
# [20] = target: TNNI3K (Homo sapiens, UniProt Q59H18)
# Outline: as §1
# [21] = target: WEE2 (Homo sapiens, UniProt P0C1S8)
# Outline: as §1
# [22] = target: T6, YSK4 (Homo sapiens, UniProt Q56UN5)
# T6 construct: gene MAP3K19
# Outline: as §1
# T1 sequence (P00519 whole entry F317I): as the sequence (P00519 whole entry F317L) above, with L317I counted along it
structure (smiles),measurement,setting,value
C=C(C)[C@H]1CC=C(C)C(=O)C1 [S-carvone],remaining binding at 100 µM,[1],64%
same,remaining binding at 100 µM,[2],78%
same,remaining binding at 100 µM,[3],81%
same,remaining binding at 100 µM,[4],75%
same,remaining binding at 100 µM,[5],74%
same,remaining binding at 100 µM,[6],91%
same,remaining binding at 100 µM,[7],84%
same,remaining binding at 100 µM,[8],74%
same,remaining binding at 100 µM,[9],75%
same,remaining binding at 100 µM,[10],78%
same,remaining binding at 100 µM,[11],75%
same,remaining binding at 100 µM,[12],83%
same,remaining binding at 100 µM,[13],90%
same,remaining binding at 100 µM,[14],84%
same,remaining binding at 100 µM,[15],95%
same,remaining binding at 100 µM,[16],49%
same,remaining binding at 100 µM,[17],73%
same,remaining binding at 100 µM,[18],61%
same,remaining binding at 100 µM,[19],70%
same,remaining binding at 100 µM,[20],93%
same,remaining binding at 100 µM,[21],88%
same,remaining binding at 100 µM,[22],61%

# Reference: publication PMC10174618, “Monoterpenoid aryl hydrocarbon receptor allosteric antagonists protect against ultraviolet skin damage in female mice” (Nature Communications, 2023)
